For test [1], the target named is yeast α-glucosidase. The test can be described thus: α-Glucosidase inhibition assay (pNPG substrate).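 Also: enzyme and compounds preincubated 5 min at 37 °C, then pNPG hydrolysis run 30 min at 37 °C in phosphate buffer pH 6.8, compared against 1% DMSO blank.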 Type of test: biochemical.
Experimental: (§1) PTP1B (human, recombinant), yeast α-glucosidase, dithiothreitol (DTT), p-nitrophenyl phosphate (pNPP), p-nitrophenyl-α-D-glucopyranoside (pNPG), and β-mercaptoethanol were purchased from Sigma-Aldrich (St. Louis, MO, USA).
A slightly modified and developed method of the α-glucosidase assay was used [23]. α-Glycosidase solution (30 µL, in 0.1 mol/L potassium phosphate buffer, 2 units/mL, pH 6.8) was mixed with different concentrations of compounds (20 µL, in 1% DMSO) and incubated at 37 °C for 5 min. Then, pNPG (150 µL, 10 mM) and potassium phosphate buffer (800 µL, 0.1 M) were added to the solution. After 30 min of incubation at 37 °C, the reaction was stopped by adding Na2CO3 (2 mL, 1 M). In the blank control group, 1% DMSO (20 μL) was added instead of the sample solution. The absorbance of the released product (p-nitrophenol) was obtained at 405 nm with a microplate reader.
Test [2] addresses T1, PTP1B (human, recombinant) (Homo sapiens, UniProt P18031).
T1 construct: purchased Sigma-Aldrich (St. Louis, MO, USA)
T1 sequence (P18031 1-435): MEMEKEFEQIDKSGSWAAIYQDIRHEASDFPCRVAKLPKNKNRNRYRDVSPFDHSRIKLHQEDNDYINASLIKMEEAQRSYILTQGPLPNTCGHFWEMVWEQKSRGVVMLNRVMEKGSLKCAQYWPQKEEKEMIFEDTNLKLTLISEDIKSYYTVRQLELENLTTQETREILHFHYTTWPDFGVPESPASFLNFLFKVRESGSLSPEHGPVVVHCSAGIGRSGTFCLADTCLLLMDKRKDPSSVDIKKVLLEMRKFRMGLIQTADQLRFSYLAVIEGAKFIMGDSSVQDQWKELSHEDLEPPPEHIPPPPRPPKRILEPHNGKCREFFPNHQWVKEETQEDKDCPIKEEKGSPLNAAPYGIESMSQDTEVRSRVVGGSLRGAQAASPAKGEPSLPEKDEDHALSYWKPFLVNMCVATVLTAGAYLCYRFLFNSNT
Kind of test: PTP1B inhibition assay (pNPP substrate). The note with it: read-out: PTP1B IC50. Type of test: biochemical.
Experimental: as §1
Exactly 83 µL of the enzyme in buffer (pH 7.5) consisting of 2 mM β-mercaptoethanol, 25 mM Tris-HCl, 1 mM DTT, 1 mM EDTA, and 10 µL of different concentrations of compounds were incubated in a 96-well plate at 37 °C for 10 min. Subsequently, the enzyme was incubated with the substrate pNPP (4 µL, 10 mM) in a buffer at 37 °C for 30 min, and NaOH (5 µL, 2 mol/L) was added to stop the reaction. In the blank control group, 1% DMSO (10 µL) was added to replace the sample solution.

The subject of test [3] is intracellular ROS in MIN6 cells damaged by H2O2. Kind of test: Intracellular ROS (DCFH-DA fluorescence) in H2O2-damaged MIN6 cells. Type of test: cell-based, Mouse. To be noted: 100 μM for 4 h, then 200 μM H2O2 for 12 h. An excerpt:
Oxidative stress response is often accompanied by the production of a large number of reactive oxygen species (ROS). H2O2 induces ROS production imbalance and destroys MIN6 cells, resulting in oxidative stress damage. Dichloro-fluorescein-diacetate (DCFH-DA) fluorescence probe was used to detect the level of intracellular ROS in MIN6 cells damaged by H2O2 and investigate whether compound 2 plays a protective role by inhibiting ROS production. Nonfluorescent DCFH-DA dye can freely enter the cell membrane and hydrolyze to form DCFHs by intracellular esterase. In the presence of ROS, DCFHs were rapidly oxidized to form highly fluorescent DCFs. The fluorescence intensity of DCFs is assumed to be parallel to the amount of ROS formed in cells. The fluorescence intensity of DCFs in the H2O2-damaged group was considerably higher than in the control group.
Figure 5 Compound 2 reduced the amount of intracellular reactive oxygen species (ROS). Cells were treated with 100 μM of compound 2 for 4 h, then exposed to 200 μM H2O2 for 12 h. Cells were stained with dichloro-fluorescein-diacetate (DCFH-DA). The DCF fluorescence intensity was measured by fluorescence microscope.
The amount of intracellular ROS was measured by the fluorescence probe-2′,7′-dichloro-fluorescein-diacetate (DCFH-DA) purchased from Sigma. […] Then, the fluorescence intensity was measured under a fluorescence microscope.

The subject of test [4] is MIN6 cells damaged by H2O2. The test can be described thus: Protective effect on H2O2-damaged MIN6 cells (MTT cell viability).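 Also: mouse pancreatic beta cell line MIN6, viability read as MTT absorbance at 490 nm.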 Type of test: cell-based, Mouse. The note with it: Mus musculus, then 200 μM H2O2 for 12 h.
Experimental: Cell viability was measured by the MTT method.
Mouse normal pancreatic beta cell line MIN6 was obtained from Beijing Dingguo Biotechnology Co., Ltd. (Beijing, China). […] Cell viability was measured using the MTT assay. Cells (6 × 10^4 per mL) were cultured in a 96-well (100 μL per well) microplate at 37 °C in humidified 5% CO2 for 24 h. Cells were also treated with various concentrations of compounds for 4 h and then exposed to 200 μM H2O2 for 12 h. The absorptions were measured at 490 nm with a microplate reader (iMark, Bio-Rad, Hercules, CA, USA).
In test [5] the test system is SOD, CAT, and GSH in MIN6 cells damaged by H2O2. The test can be described thus: SOD, CAT and GSH determination in H2O2-damaged MIN6 cells. To be noted: various concentrations for 4 h, then 200 μM H2O2 for 12 h. Type of test: cell-based, Mouse. As to the method: Superoxide dismutase (SOD) and catalase (CAT) are antioxidant enzymes that play important roles in preventing oxidative injury. Glutathione (GSH) is a major tissue antioxidant maintained in reduced form by glutathione reductase, and it provides reducing equivalents for glutathione peroxidase catalyzing reduction. The activities of SOD, CAT, and GSH in MIN6 cells damaged by H2O2 were measured to evaluate the effects of compound 2 on antioxidant defense systems.
Figure 4 Compound 2 restored superoxide dismutase (SOD) and catalase (CAT) activities and glutathione (GSH) level in MIN6 cells damaged by H2O2. Cells were treated with various concentrations of compound 2 for 4 h, then exposed to 200 μM H2O2 for 12 h. SOD, CAT, and GSH were measured with microplate. Data are presented as means ± SDs of three independent experiments. * p < 0.05, ** p < 0.01, *** p < 0.001 compared with com.2 (0 μM) in 200 μM H2O2.
CAT and SOD as antioxidant enzymes and nonenzymatic antioxidant (GSH) in pancreatic cells were determined using commercial kits in accordance with their guidelines. The absorbance of each well was measured by a microplate reader (iMark, Bio-Rad, Hercules, CA, USA).

For test [6], the system named is Nrf2/HO-1 pathway in MIN6 cells. The test can be described thus: Western blot of Nrf2 and HO-1 expression in MIN6 cells. To be noted: 60 and 100 μM. Type of test: cell-based, Mouse. As to the method:
Nrf2 is a stress-response transcriptional activator that protects cells from oxidative damage. Under oxidative stress, Nrf2 was transferred into the nucleus to induce the expression of HO-1 [21]. Thus, the effects of compound 2 on the expression levels of Nrf2 and HO-1 were tested.
Figure 6 Effects of compound 2 on the expression of Nrf2 and HO-1 in MIN6 cells. (A) Expression levels of Nrf2-mediated antioxidant proteins were detected by Western blot analysis in 16 h. (B,C) Quantification of Nrf2 and HO-1 protein expression. Data are presented as means ± SDs of three independent experiments. ^& p < 0.05, ^&& p < 0.01 compared with control group (untreated with H2O2 and compound 2). ^## p < 0.01, ^### p < 0.001 compared with model group (only treated with H2O2). (D) Expression levels of Nrf2-mediated antioxidant proteins after the cells were incubated with 100 μM of compound 2 for the indicated time period. (E,F) Quantification of Nrf2 and HO-1 protein expression. Data are presented as means ± SDs of three independent experiments. ** p < 0.01, *** p < 0.001 compared with control group.
We used RIPA lysis buffer to extract total cellular proteins, and the protein concentration was measured by bicinchoninic acid. SDS-PAGE was conducted in 10% gel, and the protein load in each lane was equal. […]
A general note: Immunoblotting shows a protein as a band on a membrane.

The record followed here is article PMC6225166, “Polyphenols from Acorn Leaves (Quercus liaotungensis) Protect Pancreatic Beta Cells and Their Inhibitory Activity against α-Glucosidase and Protein Tyrosine Phosphatase 1B” (Molecules : A Journal of Synthetic Chemistry and Natural …, 2018).

One may read the IC50 as the concentration that inhibits the measured activity by half. The term EC50 denotes the concentration at which the effect is half-maximal. As usually defined, the viability is the share of living cells, or the viability signal relative to a control. With `O=C(OC1C(Oc2c(-c3ccc(O)c(O)c3)oc3cc(O)cc(O)c3c2=O)OC(CO)C(O)C1O)c1cc(O)c(O)c(O)c1` (stereo not drawn) [Compound 2, quercetin-3-O-(2″-O-galloyl)-β-galactopyranoside], the IC50 is 8.59 ± 1.52 µM in test [1] and 5.56 ± 0.38 µM in test [2]. For the same compound, in test [3], the “Intracellular ROS (DCF fluorescence intensity)” value was “eliminated intracellular ROS”. Moreover, in test [4] (MIN6, 4 h pretreatment, read-out: EC50 of protective effect on H2O2-induced MIN6 cells), the EC50 was determined as 73.09 ± 0.56 µM. Further, in test [4] (compounds 100 μM, 4 h, MIN6 cells, read-out: Cell Viability % of Control), the viability at 100 µM turned out to be 81.5 ± 2.66%. Besides, in test [5], the “Activities of SOD, CAT and GSH compared with H2O2-damaged group” value is given as “markedly increased”. Further, the “Expression of Nrf2 and HO-1” value in test [6] was “substantially increase”.
